# Experimental data as given in ChEMBL document CHEMBL4507270 (2021).
# How the values were obtained:
# [1] = system: Fibroblast growth factor receptor 3 (Homo sapiens), P22607 [G697C]
# [2] = biological target: TGF-beta receptor type-2 (Homo sapiens) (UniProt P37173)
# [3] = biological target: Phosphatidylinositol 5-phosphate 4-kinase type-2 beta (Homo sapiens) (UniProt P78356)
# [4] = biological target: NUAK family SNF1-like kinase 1 (Homo sapiens) (UniProt O60285)
# [5] = biological target: Fibroblast growth factor receptor 2 (Homo sapiens) (UniProt P21802)
# [6] = biological target: Serine/threonine-protein kinase Chk2 (Homo sapiens) (UniProt O96017)
# [7] = system: Serine/threonine-protein kinase B-raf (Homo sapiens), P15056 [V600E]
# [8] = biological target: Cyclin-dependent kinase 2 (Homo sapiens) (UniProt P24941)
# [9] = biological target: Calcium/calmodulin-dependent protein kinase type 1D (Homo sapiens) (UniProt Q8IU85)
# [10] = system: Phosphatidylinositol 4,5-bisphosphate 3-kinase catalytic subunit alpha isoform (Homo sapiens), P42336 [E545K]
# [11] = biological target: Calcium/calmodulin-dependent protein kinase type 1 (Homo sapiens) (UniProt Q14012)
# [12] = system: Phosphatidylinositol 4,5-bisphosphate 3-kinase catalytic subunit alpha isoform (Homo sapiens), P42336 [Q546K]
# [13] = biological target: Dual specificity protein kinase CLK2 (Homo sapiens) (UniProt P49760)
# [14] = biological target: TRAF2 and NCK-interacting protein kinase (Homo sapiens) (UniProt Q9UKE5)
# [15] = biological target: Ephrin type-A receptor 7 (Homo sapiens) (UniProt Q15375)
# [16] = biological target: Serine/threonine-protein kinase 33 (Homo sapiens) (UniProt Q9BYT3)
# [17] = biological target: Sodium-dependent dopamine transporter (Homo sapiens) (UniProt Q01959); conditions: Compound concentration 10.0 uM
# [18] = biological target: SRSF protein kinase 3 (Homo sapiens) (UniProt Q9UPE1)
# [19] = biological target: Mitotic checkpoint serine/threonine-protein kinase BUB1 (Homo sapiens) (UniProt O43683)
# [20] = biological target: Ribosomal protein S6 kinase alpha-3 (Homo sapiens) (UniProt P51812)
# [21] = biological target: Receptor-interacting serine/threonine-protein kinase 1 (Homo sapiens) (UniProt Q13546)
# Chain of Receptor-interacting serine/threonine-protein kinase 1 (Homo sapiens) (Q13546 whole entry): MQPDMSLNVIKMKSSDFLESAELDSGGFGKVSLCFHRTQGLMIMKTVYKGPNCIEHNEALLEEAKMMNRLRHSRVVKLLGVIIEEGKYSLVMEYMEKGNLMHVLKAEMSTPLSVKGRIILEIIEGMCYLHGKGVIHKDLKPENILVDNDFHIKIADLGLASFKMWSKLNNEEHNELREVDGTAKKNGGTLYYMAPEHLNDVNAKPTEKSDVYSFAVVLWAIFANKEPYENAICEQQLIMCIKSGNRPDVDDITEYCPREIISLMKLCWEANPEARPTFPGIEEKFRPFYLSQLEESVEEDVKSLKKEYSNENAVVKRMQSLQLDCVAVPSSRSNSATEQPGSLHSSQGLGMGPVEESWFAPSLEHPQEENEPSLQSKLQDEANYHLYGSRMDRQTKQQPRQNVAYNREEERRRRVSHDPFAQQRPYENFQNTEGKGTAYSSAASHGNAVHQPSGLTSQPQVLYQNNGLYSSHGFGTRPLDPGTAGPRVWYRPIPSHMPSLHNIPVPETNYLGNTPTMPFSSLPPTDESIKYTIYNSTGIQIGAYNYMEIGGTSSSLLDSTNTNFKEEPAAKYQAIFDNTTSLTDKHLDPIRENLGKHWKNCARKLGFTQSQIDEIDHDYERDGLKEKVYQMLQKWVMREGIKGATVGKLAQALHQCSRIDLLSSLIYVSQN
# [22] = biological target: Non-receptor tyrosine-protein kinase TYK2 (Homo sapiens) (UniProt P29597)
# [23] = biological target: cAMP-dependent protein kinase catalytic subunit PRKX (Homo sapiens) (UniProt P51817)
# [24] = system: Phosphatidylinositol 4,5-bisphosphate 3-kinase catalytic subunit alpha isoform (Homo sapiens), P42336 [H1047Y]
# [25] = biological target: Sigma non-opioid intracellular receptor 1 (Homo sapiens) (UniProt Q99720); conditions: Compound concentration 10.0 uM
# [26] = biological target: Tyrosine-protein kinase JAK1 (Homo sapiens) (UniProt P23458)
# Chain of Tyrosine-protein kinase JAK1 (Homo sapiens) (P23458 whole entry): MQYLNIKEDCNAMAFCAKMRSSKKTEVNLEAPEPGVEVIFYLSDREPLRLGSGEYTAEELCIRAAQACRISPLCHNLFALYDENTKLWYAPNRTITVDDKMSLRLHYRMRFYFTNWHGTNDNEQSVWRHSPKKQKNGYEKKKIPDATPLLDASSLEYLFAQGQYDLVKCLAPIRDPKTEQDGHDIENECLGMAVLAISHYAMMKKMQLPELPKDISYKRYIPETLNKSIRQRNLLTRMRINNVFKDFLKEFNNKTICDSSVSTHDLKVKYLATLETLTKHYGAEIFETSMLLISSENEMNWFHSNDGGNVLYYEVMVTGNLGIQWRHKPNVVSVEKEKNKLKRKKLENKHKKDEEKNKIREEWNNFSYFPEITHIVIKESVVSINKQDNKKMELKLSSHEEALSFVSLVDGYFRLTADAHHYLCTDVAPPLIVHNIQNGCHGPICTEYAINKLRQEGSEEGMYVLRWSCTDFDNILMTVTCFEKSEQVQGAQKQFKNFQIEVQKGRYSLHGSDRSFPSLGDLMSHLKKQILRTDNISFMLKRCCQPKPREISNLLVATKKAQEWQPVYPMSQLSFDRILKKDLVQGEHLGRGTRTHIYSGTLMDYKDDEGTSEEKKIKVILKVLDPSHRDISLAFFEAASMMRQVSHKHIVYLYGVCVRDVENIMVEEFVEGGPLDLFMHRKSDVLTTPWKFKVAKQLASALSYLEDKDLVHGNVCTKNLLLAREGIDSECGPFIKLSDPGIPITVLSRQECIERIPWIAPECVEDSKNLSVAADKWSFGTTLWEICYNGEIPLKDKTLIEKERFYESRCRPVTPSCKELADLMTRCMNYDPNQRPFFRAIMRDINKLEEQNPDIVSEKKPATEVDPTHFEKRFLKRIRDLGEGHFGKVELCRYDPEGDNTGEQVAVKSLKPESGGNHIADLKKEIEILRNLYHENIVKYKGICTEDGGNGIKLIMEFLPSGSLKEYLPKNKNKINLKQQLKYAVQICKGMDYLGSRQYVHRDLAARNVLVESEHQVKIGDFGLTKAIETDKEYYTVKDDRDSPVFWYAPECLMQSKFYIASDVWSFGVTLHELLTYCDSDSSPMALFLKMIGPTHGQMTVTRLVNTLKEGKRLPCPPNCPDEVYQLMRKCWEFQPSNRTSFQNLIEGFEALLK
# [27] = system: Proto-oncogene tyrosine-protein kinase receptor Ret (Homo sapiens), P07949 [V804L]
# [28] = biological target: Cyclin-dependent kinase 9 (Homo sapiens) (UniProt P50750)
# [29] = biological target: Serine/threonine-protein kinase DCLK3 (Homo sapiens) (UniProt Q9C098)
# [30] = biological target: Serine/threonine-protein kinase Sgk2 (Homo sapiens) (UniProt Q9HBY8)
# [31] = biological target: Inhibitor of nuclear factor kappa-B kinase subunit beta (Homo sapiens) (UniProt O14920)
# [32] = biological target: Casein kinase I isoform gamma-1 (Homo sapiens) (UniProt Q9HCP0)
# [33] = system: Epidermal growth factor receptor (Homo sapiens), P00533 [T790M]
# [34] = biological target: Sigma intracellular receptor 2 (Homo sapiens, UniProt Q5BJF2); test: GPCRScan assay: inhibition of Sigma 2; set-up: radioligand conc. used [nm] 5.0, parental cells HEKT
# Chain of Sigma intracellular receptor 2 (Q5BJF2 whole entry): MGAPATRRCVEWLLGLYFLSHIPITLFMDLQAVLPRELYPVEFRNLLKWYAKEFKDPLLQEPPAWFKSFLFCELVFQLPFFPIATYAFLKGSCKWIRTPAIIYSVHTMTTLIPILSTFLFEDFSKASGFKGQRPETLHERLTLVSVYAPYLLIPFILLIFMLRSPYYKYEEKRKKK
# [35] = biological target: Ribosomal protein S6 kinase alpha-1 (Homo sapiens) (UniProt Q15418)
# [36] = biological target: Phosphatidylinositol 4-phosphate 3-kinase C2 domain-containing subunit beta (Homo sapiens) (UniProt O00750)
# [37] = biological target: Serine/threonine-protein kinase PAK 1 (Homo sapiens) (UniProt Q13153)
# [38] = biological target: Serine/threonine-protein kinase ULK1 (Homo sapiens) (UniProt O75385)
# [39] = biological target: Serine/threonine-protein kinase MARK1 (Homo sapiens) (UniProt Q9P0L2)
# [40] = biological target: Serine/threonine-protein kinase Nek3 (Homo sapiens) (UniProt P51956)
# [41] = biological target: Alpha-1B adrenergic receptor (Homo sapiens) (UniProt P35368); conditions: Compound concentration 10.0 uM
# Chain of Alpha-1B adrenergic receptor (Homo sapiens) (P35368 whole entry): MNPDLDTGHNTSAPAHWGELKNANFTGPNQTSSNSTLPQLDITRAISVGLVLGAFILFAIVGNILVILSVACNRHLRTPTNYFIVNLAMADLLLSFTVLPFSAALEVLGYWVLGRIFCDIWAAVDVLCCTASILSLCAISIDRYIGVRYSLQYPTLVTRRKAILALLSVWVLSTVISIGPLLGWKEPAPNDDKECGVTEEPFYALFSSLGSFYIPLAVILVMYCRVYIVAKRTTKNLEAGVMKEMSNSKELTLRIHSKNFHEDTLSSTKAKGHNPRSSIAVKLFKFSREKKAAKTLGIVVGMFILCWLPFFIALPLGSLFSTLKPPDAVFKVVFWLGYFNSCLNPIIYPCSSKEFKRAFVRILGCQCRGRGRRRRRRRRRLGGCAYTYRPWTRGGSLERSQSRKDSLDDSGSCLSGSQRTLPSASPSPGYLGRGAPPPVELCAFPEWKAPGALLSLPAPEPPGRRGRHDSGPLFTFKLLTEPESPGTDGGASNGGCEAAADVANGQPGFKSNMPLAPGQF
# [42] = biological target: Serine/threonine-protein kinase pim-2 (Homo sapiens) (UniProt Q9P1W9)
# [43] = system: Mast/stem cell growth factor receptor Kit (Homo sapiens), P10721 [A829P]
# Chain of Mast/stem cell growth factor receptor Kit (Homo sapiens), P10721 [A829P] (P10721 whole entry A829P): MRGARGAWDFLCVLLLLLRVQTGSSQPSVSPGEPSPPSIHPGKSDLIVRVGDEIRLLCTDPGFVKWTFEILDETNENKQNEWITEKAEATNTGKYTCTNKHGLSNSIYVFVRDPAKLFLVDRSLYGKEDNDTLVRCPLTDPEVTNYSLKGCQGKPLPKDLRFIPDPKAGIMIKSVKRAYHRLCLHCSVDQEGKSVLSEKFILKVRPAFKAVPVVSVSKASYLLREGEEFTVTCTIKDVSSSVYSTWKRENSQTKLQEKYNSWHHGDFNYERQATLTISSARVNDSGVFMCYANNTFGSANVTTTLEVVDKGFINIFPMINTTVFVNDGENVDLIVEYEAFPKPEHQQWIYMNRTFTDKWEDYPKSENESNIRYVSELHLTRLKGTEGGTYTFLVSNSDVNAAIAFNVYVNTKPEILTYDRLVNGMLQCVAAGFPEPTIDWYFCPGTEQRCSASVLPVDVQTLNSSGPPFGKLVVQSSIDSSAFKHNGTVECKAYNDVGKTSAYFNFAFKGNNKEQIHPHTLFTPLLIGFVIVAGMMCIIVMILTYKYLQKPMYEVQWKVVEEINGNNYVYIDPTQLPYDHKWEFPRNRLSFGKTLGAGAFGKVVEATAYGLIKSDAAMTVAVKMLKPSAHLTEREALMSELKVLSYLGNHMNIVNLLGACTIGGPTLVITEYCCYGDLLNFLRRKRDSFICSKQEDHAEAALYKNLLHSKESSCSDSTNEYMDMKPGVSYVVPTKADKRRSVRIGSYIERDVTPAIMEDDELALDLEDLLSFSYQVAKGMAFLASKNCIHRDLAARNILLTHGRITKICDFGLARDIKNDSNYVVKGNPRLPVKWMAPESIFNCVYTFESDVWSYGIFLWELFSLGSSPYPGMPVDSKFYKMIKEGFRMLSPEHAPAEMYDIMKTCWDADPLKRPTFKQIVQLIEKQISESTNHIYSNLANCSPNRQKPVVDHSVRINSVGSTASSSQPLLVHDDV
# [44] = biological target: Cytoplasmic tyrosine-protein kinase BMX (Homo sapiens) (UniProt P51813)
# Chain of Cytoplasmic tyrosine-protein kinase BMX (Homo sapiens) (P51813 whole entry): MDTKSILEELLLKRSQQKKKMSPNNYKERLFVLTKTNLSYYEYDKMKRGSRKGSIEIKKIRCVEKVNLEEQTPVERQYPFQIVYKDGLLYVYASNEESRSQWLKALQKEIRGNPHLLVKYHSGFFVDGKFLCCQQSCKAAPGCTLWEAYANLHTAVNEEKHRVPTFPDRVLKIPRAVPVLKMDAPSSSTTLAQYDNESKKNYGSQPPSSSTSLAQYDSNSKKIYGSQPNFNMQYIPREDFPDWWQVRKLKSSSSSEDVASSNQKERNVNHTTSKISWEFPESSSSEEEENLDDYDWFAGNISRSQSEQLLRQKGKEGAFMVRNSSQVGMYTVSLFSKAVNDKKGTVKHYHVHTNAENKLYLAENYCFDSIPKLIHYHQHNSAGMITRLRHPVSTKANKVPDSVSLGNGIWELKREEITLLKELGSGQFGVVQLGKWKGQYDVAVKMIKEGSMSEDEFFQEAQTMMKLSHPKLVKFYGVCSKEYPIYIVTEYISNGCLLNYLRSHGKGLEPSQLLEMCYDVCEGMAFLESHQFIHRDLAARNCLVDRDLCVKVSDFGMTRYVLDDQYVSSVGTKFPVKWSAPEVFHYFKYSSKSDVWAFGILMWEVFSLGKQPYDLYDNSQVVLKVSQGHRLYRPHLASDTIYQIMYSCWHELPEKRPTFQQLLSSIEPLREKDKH
# [45] = Compound concentration 100.0 nM
# [46] = Compound concentration 1000.0 nM
# Chain of NUAK family SNF1-like kinase 1 (Homo sapiens) (O60285 whole entry): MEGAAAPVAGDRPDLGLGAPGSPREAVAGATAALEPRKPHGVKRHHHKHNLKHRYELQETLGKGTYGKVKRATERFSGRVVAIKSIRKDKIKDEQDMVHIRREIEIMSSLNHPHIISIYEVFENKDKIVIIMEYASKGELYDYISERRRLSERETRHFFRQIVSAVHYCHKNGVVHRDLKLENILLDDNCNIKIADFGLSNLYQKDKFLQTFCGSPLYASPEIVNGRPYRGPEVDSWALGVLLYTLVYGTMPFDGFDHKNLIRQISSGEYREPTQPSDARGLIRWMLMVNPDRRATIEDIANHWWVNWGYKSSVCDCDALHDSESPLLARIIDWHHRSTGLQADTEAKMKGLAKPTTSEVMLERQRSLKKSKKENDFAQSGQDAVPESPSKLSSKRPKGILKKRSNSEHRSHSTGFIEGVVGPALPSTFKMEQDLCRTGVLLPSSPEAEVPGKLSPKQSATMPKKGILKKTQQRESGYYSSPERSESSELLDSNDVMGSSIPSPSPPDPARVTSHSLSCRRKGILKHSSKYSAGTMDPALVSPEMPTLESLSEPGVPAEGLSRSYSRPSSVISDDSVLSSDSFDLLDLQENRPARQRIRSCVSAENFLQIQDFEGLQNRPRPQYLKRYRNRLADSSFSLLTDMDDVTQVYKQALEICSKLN
compound,measurement,setting,value
Cc1cc(C)c(-n2ccn3nc(-c4cccnc4)cc23)cc1NC(=O)c1cc(C#N)cc(S(F)(F)(F)(F)F)c1 [BAY-826],residual activity,[1]; [45],100%
same,residual activity,[2]; [45],78.6%
same,residual activity,[3]; [45],52.2%
same,residual activity,[4]; [45],100%
same,residual activity,[5]; [45],84.3%
same,residual activity,[6]; [45],100%
same,residual activity,[7]; [45],100%
same,residual activity,[8]; [45],99%
same,residual activity,[9]; [45],71.6%
same,residual activity,[10]; [45],77.8%
same,residual activity,[11]; [45],60.4%
same,residual activity,[12]; [45],100%
same,residual activity,[13]; [45],91%
same,residual activity,[14]; [45],97.4%
same,residual activity,[15]; [45],92%
same,residual activity,[16]; [45],100%
same,inhibition,[17],10.7%
same,residual activity,[18]; [45],100%
same,residual activity,[19]; [45],99.8%
same,residual activity,[20]; [45],65.1%
same,residual activity,[21]; [45],91.5%
same,residual activity,[22]; [45],76.9%
same,residual activity,[23]; [45],68.5%
same,residual activity,[24]; [45],76.2%
same,inhibition,[25],-4.84%
same,residual activity,[26]; [45],100%
same,residual activity,[27]; [45],93.6%
same,residual activity,[28]; [45],85.5%
same,residual activity,[29]; [45],83.5%
same,residual activity,[30]; [45],100%
same,residual activity,[31]; [45],100%
same,residual activity,[32]; [45],91.1%
same,residual activity,[33]; [45],61.6%
same,Ki,[34]; read-out: Ki,984 nM
same,Ki,[34]; read-out: pKi (converted),955 nM
same,residual activity,[35]; [45],97%
same,residual activity,[36]; [45],93.4%
same,residual activity,[37]; [45],82.2%
same,residual activity,[38]; [45],100%
same,residual activity,[39]; [45],96.7%
same,residual activity,[40]; [45],70.7%
same,inhibition,[41],-0.87%
same,residual activity,[42]; [45],100%
same,residual activity,[43]; [45],50.9%
same,residual activity,[44]; [45],76.7%
Cc1cc(NC(=O)c2cccc(S(F)(F)(F)(F)F)c2)cc(-n2ccn3nc(-c4cccnc4)cc23)c1 [BAY-309],residual activity,[1]; [46],100%
same,residual activity,[2]; [46],94.5%
same,residual activity,[3]; [46],100%
same,residual activity,[4]; [46],51.3%
same,residual activity,[5]; [46],81.7%
same,residual activity,[6]; [46],100%
same,residual activity,[7]; [46],24.4%
same,residual activity,[8]; [46],100%
same,residual activity,[9]; [46],94.9%
same,residual activity,[10]; [46],72.5%
same,residual activity,[11]; [46],77.9%
same,residual activity,[12]; [46],100%
same,residual activity,[13]; [46],100%
same,residual activity,[14]; [46],100%
same,residual activity,[15]; [46],91.2%
same,residual activity,[16]; [46],87.8%
same,inhibition,[17],38.1%
same,residual activity,[18]; [46],100%
same,residual activity,[19]; [46],100%
same,residual activity,[20]; [46],89%
same,residual activity,[21]; [46],80.7%
same,residual activity,[22]; [46],51%
same,residual activity,[23]; [46],100%
same,residual activity,[24]; [46],22.9%
same,inhibition,[25],19.3%
same,residual activity,[26]; [46],100%
same,residual activity,[27]; [46],100%
same,residual activity,[28]; [46],100%
same,residual activity,[29]; [46],100%
same,residual activity,[30]; [46],100%
same,residual activity,[31]; [46],65.5%
same,residual activity,[32]; [46],100%
same,residual activity,[33]; [46],100%
same,Ki,[34]; read-out: Ki,796 nM
same,Ki,[34]; read-out: pKi (converted),789 nM
same,residual activity,[35]; [46],91.7%
same,residual activity,[36]; [46],100%
same,residual activity,[37]; [46],90.9%
same,residual activity,[38]; [46],100%
same,residual activity,[39]; [46],100%
same,residual activity,[40]; [46],50.5%
same,inhibition,[41],-8.99%
same,residual activity,[42]; [46],100%
same,residual activity,[43]; [46],100%
same,residual activity,[44]; [46],100%
